Data published in PubChem BioAssay (NCI).
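96-well plates; 48 h exposure; 5 concentrations. Endpoints by linear interpolation between flanking doses. Not reached: highest tested concentration assigned. TGI: concentration producing complete growth inhibition.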

Tests used:
Assay in all cases: NCI tumour cell line growth inhibition, 48 h
MOLT-4 leukemia = system: MOLT-4 leukemia
NCI-H23 lung = system: NCI-H23 lung
XF 498 CNS = system: XF 498 CNS
A549 NSCLC = system: A549 NSCLC
SK-MEL-28 melanoma = system: SK-MEL-28 melanoma
NCI-H522 lung = system: NCI-H522 lung
SK-OV-3 ovarian = system: SK-OV-3 ovarian
IGROV1 ovarian = system: IGROV1 ovarian
TK-10 renal = system: TK-10 renal
RXF 393 renal = system: RXF 393 renal
M19-MEL melanoma = system: M19-MEL melanoma
SN12C renal = system: SN12C renal
786-0 renal = system: 786-0 renal
M14 melanoma = system: M14 melanoma
UACC-257 melanoma = system: UACC-257 melanoma
SNB-75 CNS = system: SNB-75 CNS
LOX IMVI melanoma = system: LOX IMVI melanoma
DMS 273 small cell lung = system: DMS 273 small cell lung
U251 CNS = system: U251 CNS
COLO 205 colon = system: COLO 205 colon
UACC-62 melanoma = system: UACC-62 melanoma
A498 renal = system: A498 renal
HCT-116 colon = system: HCT-116 colon
SNB-78 CNS = system: SNB-78 CNS
SR leukemia = system: SR leukemia
OVCAR-3 ovarian = system: OVCAR-3 ovarian
MALME-3M melanoma = system: MALME-3M melanoma
OVCAR-5 ovarian = system: OVCAR-5 ovarian
HT29 colon = system: HT29 colon
NCI-H460 lung = system: NCI-H460 lung
RXF-631 renal = system: RXF-631 renal
LXFL 529 NSCLC = system: LXFL 529 NSCLC
DMS 114 small cell lung = system: DMS 114 small cell lung
SF-539 CNS = system: SF-539 CNS
CCRF-CEM leukemia = system: CCRF-CEM leukemia
HOP-62 NSCLC = system: HOP-62 NSCLC
OVCAR-4 ovarian = system: OVCAR-4 ovarian
SNB-19 CNS = system: SNB-19 CNS
KM12 colon = system: KM12 colon
EKVX NSCLC = system: EKVX NSCLC
SK-MEL-5 melanoma = system: SK-MEL-5 melanoma
KM20L2 colon = system: KM20L2 colon
ACHN renal = system: ACHN renal
OVCAR-8 ovarian = system: OVCAR-8 ovarian
HCT-15 colon = system: HCT-15 colon
UO-31 renal = system: UO-31 renal
SW-620 colon = system: SW-620 colon
DLD-1 colon = system: DLD-1 colon
SF-295 CNS = system: SF-295 CNS
SF-268 CNS = system: SF-268 CNS
NCI-H226 lung = system: NCI-H226 lung
HOP-92 NSCLC = system: HOP-92 NSCLC
MDA-MB-231 breast = system: MDA-MB-231 breast
MCF7 breast = system: MCF7 breast
HOP-18 NSCLC = system: HOP-18 NSCLC
MDA-MB-435 = system: MDA-MB-435
CAKI-1 renal = system: CAKI-1 renal
PC-3 prostate = system: PC-3 prostate
HL-60(TB) leukemia = system: HL-60(TB) leukemia
BT-549 breast = system: BT-549 breast
T-47D breast = system: T-47D breast
NCI/ADR-RES ovarian = system: NCI/ADR-RES ovarian
RPMI-8226 leukemia = system: RPMI-8226 leukemia
SK-MEL-2 melanoma = system: SK-MEL-2 melanoma
K-562 leukemia = system: K-562 leukemia
HS 578T breast = system: HS 578T breast
MDA-N = system: MDA-N
DU-145 prostate = system: DU-145 prostate
HCC-2998 colon = system: HCC-2998 colon

## CCOc1ccc(NC(=O)CC2SC(=Nc3ccc(C)cc3)NC2=O)cc1 (stereo unspecified)
MOLT-4 leukemia
  TGI: 77.6 µM
NCI-H23 lung
  TGI: > 100 µM
XF 498 CNS
  TGI: > 100 µM
A549 NSCLC
  TGI: > 100 µM
SK-MEL-28 melanoma
  TGI: > 100 µM
NCI-H522 lung
  TGI: > 100 µM
SK-OV-3 ovarian
  TGI: > 100 µM
IGROV1 ovarian
  TGI: > 100 µM
TK-10 renal
  TGI: > 100 µM
RXF 393 renal
  TGI: > 100 µM
M19-MEL melanoma
  TGI: > 100 µM
SN12C renal
  TGI: > 100 µM
786-0 renal
  TGI: > 100 µM
M14 melanoma
  TGI: > 100 µM
UACC-257 melanoma
  TGI: > 100 µM
SNB-75 CNS
  TGI: > 100 µM
LOX IMVI melanoma
  TGI: > 100 µM
DMS 273 small cell lung
  TGI: > 100 µM
U251 CNS
  TGI: > 100 µM
COLO 205 colon
  TGI: > 100 µM
UACC-62 melanoma
  TGI: > 100 µM
A498 renal
  TGI: > 100 µM
HCT-116 colon
  TGI: > 100 µM
SNB-78 CNS
  TGI: > 100 µM
SR leukemia
  TGI: > 100 µM
OVCAR-3 ovarian
  TGI: > 100 µM
MALME-3M melanoma
  TGI: > 100 µM
OVCAR-5 ovarian
  TGI: > 100 µM
HT29 colon
  TGI: > 100 µM
NCI-H460 lung
  TGI: > 100 µM
RXF-631 renal
  TGI: > 100 µM
LXFL 529 NSCLC
  TGI: > 100 µM
DMS 114 small cell lung
  TGI: > 100 µM
SF-539 CNS
  TGI: > 100 µM
CCRF-CEM leukemia
  TGI: > 100 µM
HOP-62 NSCLC
  TGI: > 100 µM
OVCAR-4 ovarian
  TGI: > 100 µM
SNB-19 CNS
  TGI: > 100 µM
KM12 colon
  TGI: > 100 µM
EKVX NSCLC
  TGI: > 100 µM
SK-MEL-5 melanoma
  TGI: > 100 µM
KM20L2 colon
  TGI: > 100 µM
ACHN renal
  TGI: > 100 µM
OVCAR-8 ovarian
  TGI: > 100 µM
HCT-15 colon
  TGI: > 100 µM
UO-31 renal
  TGI: > 100 µM
SW-620 colon
  TGI: > 100 µM
DLD-1 colon
  TGI: > 100 µM
SF-295 CNS
  TGI: > 100 µM
SF-268 CNS
  TGI: > 100 µM

## O=c1cc(-c2ccccc2)oc2ccc(Cl)cc12
MOLT-4 leukemia
  TGI: 98.7 µM
NCI-H23 lung
  TGI: > 100 µM
XF 498 CNS
  TGI: > 90.5 µM
NCI-H226 lung
  TGI: > 100 µM
HOP-92 NSCLC
  TGI: 73.2 µM
A549 NSCLC
  TGI: > 100 µM
MDA-MB-231 breast
  TGI: > 31.6 µM
SK-MEL-28 melanoma
  TGI: > 78.4 µM
NCI-H522 lung
  TGI: > 100 µM
SK-OV-3 ovarian
  TGI: > 100 µM
IGROV1 ovarian
  TGI: > 100 µM
TK-10 renal
  TGI: 92.7 µM
RXF 393 renal
  TGI: > 91.2 µM
M19-MEL melanoma
  TGI: > 100 µM
SN12C renal
  TGI: > 100 µM
MCF7 breast
  TGI: > 100 µM
HOP-18 NSCLC
  TGI: > 100 µM
786-0 renal
  TGI: > 87.8 µM
M14 melanoma
  TGI: > 100 µM
UACC-257 melanoma
  TGI: > 74.6 µM
SNB-75 CNS
  TGI: > 85.7 µM
MDA-MB-435
  TGI: > 60.1 µM
CAKI-1 renal
  TGI: > 90.4 µM
LOX IMVI melanoma
  TGI: > 80.1 µM
DMS 273 small cell lung
  TGI: > 100 µM
U251 CNS
  TGI: > 91.7 µM
COLO 205 colon
  TGI: > 85.7 µM
UACC-62 melanoma
  TGI: > 79.4 µM
A498 renal
  TGI: 98 µM
HCT-116 colon
  TGI: > 100 µM
PC-3 prostate
  TGI: > 80.3 µM
SNB-78 CNS
  TGI: > 100 µM
SR leukemia
  TGI: > 46.4 µM
HL-60(TB) leukemia
  TGI: > 46.4 µM
OVCAR-3 ovarian
  TGI: > 100 µM
MALME-3M melanoma
  TGI: > 82.4 µM
BT-549 breast
  TGI: > 100 µM
OVCAR-5 ovarian
  TGI: > 100 µM
T-47D breast
  TGI: > 100 µM
HT29 colon
  TGI: > 100 µM
NCI-H460 lung
  TGI: > 100 µM
LXFL 529 NSCLC
  TGI: > 100 µM
DMS 114 small cell lung
  TGI: > 100 µM
SF-539 CNS
  TGI: > 97.4 µM
CCRF-CEM leukemia
  TGI: > 100 µM
NCI/ADR-RES ovarian
  TGI: > 100 µM
HOP-62 NSCLC
  TGI: > 85.8 µM
OVCAR-4 ovarian
  TGI: > 96.3 µM
SNB-19 CNS
  TGI: > 81.7 µM
RPMI-8226 leukemia
  TGI: > 100 µM
KM12 colon
  TGI: > 80.6 µM
EKVX NSCLC
  TGI: > 97 µM
SK-MEL-5 melanoma
  TGI: > 100 µM
KM20L2 colon
  TGI: > 100 µM
ACHN renal
  TGI: > 90.6 µM
SK-MEL-2 melanoma
  TGI: > 100 µM
OVCAR-8 ovarian
  TGI: > 100 µM
K-562 leukemia
  TGI: > 96.2 µM
HS 578T breast
  TGI: > 91.8 µM
HCT-15 colon
  TGI: > 100 µM
MDA-N
  TGI: > 61.1 µM
UO-31 renal
  TGI: > 88.8 µM
DU-145 prostate
  TGI: > 100 µM
SW-620 colon
  TGI: > 100 µM
DLD-1 colon
  TGI: > 100 µM
SF-295 CNS
  TGI: 99.1 µM
SF-268 CNS
  TGI: > 85.3 µM
HCC-2998 colon
  TGI: > 100 µM

## O=C(/C=C/c1ccccc1)c1ccc(Cl)cc1Cl
MOLT-4 leukemia
  TGI: 42.9 µM
NCI-H23 lung
  TGI: 75.8 µM
NCI-H226 lung
  TGI: 89.9 µM
HOP-92 NSCLC
  TGI: 69.3 µM
A549 NSCLC
  TGI: 60.3 µM
NCI-H522 lung
  TGI: 28.3 µM
SK-OV-3 ovarian
  TGI: 85.3 µM
IGROV1 ovarian
  TGI: 40.5 µM
TK-10 renal
  TGI: > 100 µM
M19-MEL melanoma
  TGI: 44.5 µM
SN12C renal
  TGI: 57.7 µM
HOP-18 NSCLC
  TGI: 60.5 µM
786-0 renal
  TGI: 33.2 µM
M14 melanoma
  TGI: 45.3 µM
UACC-257 melanoma
  TGI: 63.8 µM
SNB-75 CNS
  TGI: 92.7 µM
CAKI-1 renal
  TGI: 64 µM
DMS 273 small cell lung
  TGI: 34 µM
U251 CNS
  TGI: 34.6 µM
COLO 205 colon
  TGI: 37.2 µM
UACC-62 melanoma
  TGI: 30 µM
A498 renal
  TGI: 50.6 µM
HCT-116 colon
  TGI: 24 µM
SNB-78 CNS
  TGI: 49.3 µM
HL-60(TB) leukemia
  TGI: 36.2 µM
OVCAR-3 ovarian
  TGI: 40.2 µM
MALME-3M melanoma
  TGI: 46.1 µM
OVCAR-5 ovarian
  TGI: 39.5 µM
HT29 colon
  TGI: 32.9 µM
NCI-H460 lung
  TGI: 33.4 µM
RXF-631 renal
  TGI: > 100 µM
LXFL 529 NSCLC
  TGI: 31.1 µM
DMS 114 small cell lung
  TGI: 33.3 µM
SF-539 CNS
  TGI: 37.9 µM
CCRF-CEM leukemia
  TGI: 33.1 µM
HOP-62 NSCLC
  TGI: > 100 µM
OVCAR-4 ovarian
  TGI: 46.1 µM
SNB-19 CNS
  TGI: 65.2 µM
RPMI-8226 leukemia
  TGI: 28.4 µM
KM12 colon
  TGI: 34.2 µM
EKVX NSCLC
  TGI: 62.3 µM
SK-MEL-5 melanoma
  TGI: 31.4 µM
KM20L2 colon
  TGI: 45.7 µM
ACHN renal
  TGI: 34.1 µM
OVCAR-8 ovarian
  TGI: 28.4 µM
K-562 leukemia
  TGI: 30.1 µM
HCT-15 colon
  TGI: 26.4 µM
UO-31 renal
  TGI: > 100 µM
SW-620 colon
  TGI: 17.9 µM
DLD-1 colon
  TGI: 33.3 µM
SF-295 CNS
  TGI: 41.2 µM
SF-268 CNS
  TGI: 59.8 µM
HCC-2998 colon
  TGI: 40.9 µM
